Measured values reported in US7691842B2, “Tricyclic 6-alkylidene-penems as β-lactamase inhibitors” (Wyeth LLC, priority 2002, dated 2010).

How the values were obtained:
[1] = system: Clinical isolates that have been adapted to cause infection in mice; experiment: In vivo antibacterial protection (7 day survival of infected mice, ED50); parameters: species or system mice strain CD-1; settings: Ratio of Piperacillin Inhibitor 4:1
Excerpt: In Vivo Antibacterial Protection
Female mice strain CD-1, approximately 18-22 grams, were received from Charles River Laboratories and quarantined 7 days prior to use. In addition, mice may be rendered neutropenic using cytoxan for particular studies.
Clinical isolates that have been adapted to cause infection in mice, are used in the experiment, including infections with strains of E. coli, K. pneumoniae, M. morganii, E. cloacae, S. marcescens, C. freundii, staphylococci, streptococci, P. aeruginosa and N. gonorrhoeae.
Mice are challenged by injecting 0.5 ml intraperitoneally or 0.05 ml intranasally of a predetermined bacterial inoculum suspended in broth, saline or hog gastric mucin (supplemented with dried bovine hemoglobin for N. gonorrhoeae). […] Antibacterial doses (dose concentration prepared by two fold serial dilutions of the antibiotic) are dissolved or suspended in 0.2% aqueous agar or methocel, phosphate buffered saline or an adjuvant are administered orally, subcutaneously or intravenously in the following manner: • a) Orally or subcutaneously: Dose volume of 0.5 ml administered ½ hr after infection. A second dose may be administered 3 hr. after infection for treatment of infections with more virulent organisms. • b) Intravenously: Dose volume of 0.2 ml, administered ½ hr. after infection. For the treatment of infections with more virulent organisms, more doses, up to 48 hr may be administered. (Intravenous dosing will not exceed 3 doses/24 hr period.) • c) Oral pretreatment: Under special circumstances, the pH of the stomach needs to be adjusted in order to increase the gastric stability of the antibiotic. For this purpose, 0.5 ml of phosphate buffered saline (pH7.8, 0.06M) (or specific approved adjuvant) is administered orally ½ hr after infection, followed 5 minutes later by 0.5 ml of antibiotic (also orally) contained in phosphate buffered saline (pH7.8, 0.06M). Animal Species
A detailed explanation as to the number of animals needed for the determination of in vivo efficacy follows: • A) Novel antibiotics are tested at 5 different dose levels with 5 mice per dose level at each of three routes of administration (oral, subcutaneous and intravenous). […] This would require 25 mice/route with 3 routes/antibiotic or 75 mice per novel compound tested. One to two novel antibiotics will be tested per experiment (75-150 mice) • B) The effectiveness of the new compound must be compared to that of a standard, or antibiotic of known effectiveness. Known or previously tested antibiotics are tested at 5 dose levels with 5 mice per dose level by a single route of administration, for a total of 25 mice/antibiotic. Usually 3-6 antibiotics will be tested per experiment. (75-150 mice). • C) Untreated controls—In each of the above tests, untreated animals are infected with 3 different concentrations of bacterial inoculum with 10 mice per concentration (30 mice total in each and every test). These untreated controls are used to determine and maintain the infection level between 10-100 LD50s as required for test to test comparison and validity. Determination of Protective Effects of Antibacterial Agents:
The protective effects of the antibacterial agent(s) are measured by the survival of the infected untreated as compared to the treated animals. For this determination, animals are observed for 7 days after treatment. A census of survivors is taken twice daily and at that time dead as well as moribund animals are removed. The 7 day survival ratio from three separate tests are pooled for estimation of median effective dose (ED50) by computerized program for probit analysis (Cleeland, R. and E. Squires. 1991. Evaluation of New Antimicrobials in Vitro and in Experimental Animal Infections. In Antibiotics in Laboratory Medicine”, 3rd. ed., edited by Victor Lorian. Willams and Wilkins Baltimore, Md. pp. 752-783). […]

[2] = molecular target: class C enzyme AmpC (Enterobacter cloacae, UniProt P05364); experiment: biochemical; parameters: species or system Enterobacter cloaca; settings: enzyme 2.1 nM; 10 min preincubation at 25° C.; nitrocefin 50 μg/ml; 50 mM PO4, pH 7.0; read-out: IC50 (nM) Class C AmpC
Sequence of class C enzyme AmpC (P05364 21-381): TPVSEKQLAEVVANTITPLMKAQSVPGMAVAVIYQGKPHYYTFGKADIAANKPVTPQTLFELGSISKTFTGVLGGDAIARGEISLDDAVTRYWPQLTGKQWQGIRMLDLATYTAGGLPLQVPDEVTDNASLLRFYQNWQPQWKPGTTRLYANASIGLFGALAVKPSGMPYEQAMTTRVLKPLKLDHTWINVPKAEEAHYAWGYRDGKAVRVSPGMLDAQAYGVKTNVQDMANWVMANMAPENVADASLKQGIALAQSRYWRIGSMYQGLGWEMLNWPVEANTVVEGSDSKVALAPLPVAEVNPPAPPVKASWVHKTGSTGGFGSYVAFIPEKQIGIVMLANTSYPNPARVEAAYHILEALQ
Description: (§1) IC50 Determination for the Penem Inhibitor
(§2) β-Lactamase inhibitory activity of the penem inhibitors was determined spectrophotometrically as described by Bush et al., [Bush, K., Macalintal, C., Rasmussen, B. A., Lee, V. and Yang, Y. Antimicrobial Agents and Chemotherapy 1993, 37, 851]. Homogeneously purified class A β-lactamases TEM-1 from E. Coli and Imi-1 from Enterobacter cloacae, class B enzyme CcrA from Bacteroides fragilis and class C enzyme AmpC from Enterobacter cloaca were employed in the assay. The enzyme concentrations for TEM-1, Imi-1, CcrA and AmpC were 4.3, 7.1, 1.2 and 2.1 nM, respectively. A wide range of inhibitor concentrations were prepared in 50 mM PO4, pH 7.0 to include the possible IC50 values. The substrate used to initiate the enzyme reaction was nitrocefin at 50 μg/ml in the same buffer as the inhibitor. Initially the enzyme and inhibitor (20 μl each) were preincubated for 10 minutes at 25° C. prior to the addition of 160 μl volume of nitrocefin. Initial rates of hydrolysis were monitored for 5 minutes at 495 nm using a Molecular Devices Spectra Max 250 with kinetic protocol of SoftMax Program. Readings from the Spectra Max 250 were exported and transferred to Microsoft Excel. The percent of inhibition of each inhibitor concentration was calculated based on the control enzyme activity. The inhibitor concentration that caused a 50% reduction in the enzymatic activity (IC50) was determined graphically.

[3] = molecular target: class A β-lactamase TEM-1 (Escherichia coli, UniProt P62593); experiment: β-Lactamase inhibition, IC50 determination (nitrocefin, spectrophotometric); assay type: biochemical, E. Coli; settings: enzyme 4.3 nM; 10 min preincubation at 25° C.; nitrocefin 50 μg/ml; 50 mM PO4, pH 7.0; read-out: IC50 (nM) Class A TEM-1
Sequence of class A β-lactamase TEM-1 (P62593 24-286 limits assumed): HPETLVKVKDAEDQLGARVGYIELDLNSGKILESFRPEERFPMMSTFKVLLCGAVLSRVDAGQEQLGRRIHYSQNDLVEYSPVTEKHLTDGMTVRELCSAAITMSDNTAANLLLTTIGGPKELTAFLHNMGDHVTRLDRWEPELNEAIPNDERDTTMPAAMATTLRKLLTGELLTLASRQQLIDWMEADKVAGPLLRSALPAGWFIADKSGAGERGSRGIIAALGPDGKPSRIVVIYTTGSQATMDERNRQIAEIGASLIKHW
Description: as §1, §2

[4] = molecular target: class B enzyme CcrA (Bacteroides fragilis, UniProt P25910); experiment: as above; assay type: biochemical; settings: enzyme 1.2 nM; 10 min preincubation at 25° C.; nitrocefin 50 μg/ml; 50 mM PO4, pH 7.0; read-out: IC50 (nM) Class B Ccr
Sequence of class B enzyme CcrA (P25910 19-249): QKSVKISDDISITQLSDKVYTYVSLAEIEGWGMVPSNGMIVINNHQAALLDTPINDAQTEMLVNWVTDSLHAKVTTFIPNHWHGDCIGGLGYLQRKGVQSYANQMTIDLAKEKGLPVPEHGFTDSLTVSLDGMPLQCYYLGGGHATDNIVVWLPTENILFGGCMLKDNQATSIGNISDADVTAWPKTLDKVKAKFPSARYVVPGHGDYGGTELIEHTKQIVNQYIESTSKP
Description: as §1, §2

[5] = molecular target: class A β-lactamase Imi-1 (Enterobacter cloacae, UniProt Q46991); experiment: as above; assay type: biochemical; settings: enzyme 7.1 nM; 10 min preincubation at 25° C.; nitrocefin 50 μg/ml; 50 mM PO4, pH 7.0; read-out: IC50 (nM) Class A Imi
Sequence of class A β-lactamase Imi-1 (Q46991 entry or part of it): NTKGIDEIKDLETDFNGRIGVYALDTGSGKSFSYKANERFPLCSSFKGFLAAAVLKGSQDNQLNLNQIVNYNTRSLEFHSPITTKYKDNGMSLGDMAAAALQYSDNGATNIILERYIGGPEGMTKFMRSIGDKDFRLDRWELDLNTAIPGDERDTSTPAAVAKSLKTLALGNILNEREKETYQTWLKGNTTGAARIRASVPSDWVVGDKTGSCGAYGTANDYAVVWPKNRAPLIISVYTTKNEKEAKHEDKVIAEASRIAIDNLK
Description: as §1, §2

[6] = system: E. Coli GC2844; experiment: Antimicrobial susceptibility testing, microbroth dilution MIC of piperacillin + inhibitor; assay type: cell-based; settings: piperacillin combined with constant 4 μg/ml inhibitor; Inc: 35° C. for 18 hours
Description: (§3) Antimicrobial susceptibility testing. The in vitro activities of the antibiotics were determined by the microbroth dilution method as recommended by the National Committee for Clinical Laboratory Standards (NCCLS). (NCCLS. 2000. Methods for Dilution Antimicrobial Susceptibility Tests for Bacteria That Grow Aerobically; Approved Standards: M7-A5, vol. 19. National Committee for Clinical Laboratory Standards, Villanova, Pa.). Mueller-Hinton it broth (MHBII)(BBL Cockeysville, Md.), was used for the testing procedure. Microtiter plates containing 50 μl per well of two-fold serial dilutions of piperacillin combined with a constant amount (4 μg/ml) of a B-lactamase inhibitor (final concentration) were inoculated with 50 μl of inoculum to yield the appropriate density (10^5 CFU/ml) in 100 μl. The plates were incubated for 18-22 hours at 35° C. in ambient air.

[7] = system: S. aureus GC2216; experiment: as above; assay type: cell-based; settings: piperacillin combined with constant 4 μg/ml inhibitor; Inc: 35° C. for 18 hours
Description: as §3

[8] = system: E. Coli GC2894 (Ampc); experiment: as above; assay type: cell-based; settings: piperacillin combined with constant 4 μg/ml inhibitor; Inc: 35° C. for 18 hours
Description: as §3

[9] = system: E. Coli GC2920 (IRT-2); experiment: as above; assay type: cell-based; settings: piperacillin combined with constant 4 μg/ml inhibitor; Inc: 35° C. for 18 hours
Description: as §3

[10] = system: S. Marcescens GC1781 Sme-1 + Ampc; experiment: as above; assay type: cell-based; settings: piperacillin combined with constant 4 μg/ml inhibitor; Inc: 35° C. for 18 hours
Description: as §3

[11] = system: E. Coli GC2847 (TEM-1); experiment: as above; assay type: cell-based; settings: piperacillin combined with constant 4 μg/ml inhibitor; Inc: 35° C. for 18 hours
Description: as §3

[12] = system: E. Coli GC2203; experiment: as above; assay type: cell-based; settings: piperacillin combined with constant 4 μg/ml inhibitor; Inc: 35° C. for 18 hours
Description: as §3

[13] = system: P. aeruginos GC1764 (Ampc); experiment: as above; assay type: cell-based; settings: piperacillin combined with constant 4 μg/ml inhibitor; Inc: 35° C. for 18 hours
Description: as §3

[14] = system: E. Cloacae GC1477 (Ampc); experiment: as above; assay type: cell-based; settings: piperacillin combined with constant 4 μg/ml inhibitor; Inc: 35° C. for 18 hours
Description: as §3

Row | SMILES | ED50 [1] [mg/kg] | IC50 [2] [nM] | IC50 [3] [nM] | IC50 [4] [nM] | IC50 [5] [nM] | Minimal Inhibitory Concentration E. Coli GC2844 [6] [µg/mL] | Minimal Inhibitory Concentration S. aureus GC2216 [7] | Minimal Inhibitory Concentration E. Coli GC2894 (Ampc) [8] [µg/mL] | Minimal Inhibitory Concentration E. Coli GC2920 (IRT-2) [9] [µg/mL] | Minimal Inhibitory Concentration S. Marcescens GC1781 Sme-1 + Ampc [10] [µg/mL] | Minimal Inhibitory Concentration E. Coli GC2847 (TEM-1) [11] [µg/mL] | Minimal Inhibitory Concentration E. Coli GC2203 [12] [µg/mL] | Minimal Inhibitory Concentration P. aeruginos GC1764 (Ampc) [13] [µg/mL] | Minimal Inhibitory Concentration E. Cloacae GC1477 (Ampc) [14] [µg/mL]
1 | O=C(O)C1=CS[C@@H]2/C(=C\c3cn4c(n3)sc3cc(Cl)ccc34)C(=O)N12 [Example 3] | 32 to 64 | 3.2 | 5.6 | 74 | 22 | 2 | <0.06 µg/mL | 2 | 1 | 1 | 4 | 1 | 8 | 16
2 | O=C(O)C1=CS[C@@H]2/C(=C\c3cn4c5c(sc4n3)CCC5)C(=O)N12 [Example 5, (5R),(6Z)-6-(6,7-dihydro-5H-cyclopenta[d]imidazo[2,1-b][1,3]thiazol-2-ylmethylene)-7-oxo-4-thia-1-azabicyclo[3.2.0]hept-2-ene-2-carboxylic acid] | 19.5 | 2.1 | 1.4 | 240 |  | 2 | <0.06 µg/mL | 2 | 2 | 0.5 | 4 | 2 | 1 | 16
3 | O=C(O)C1=CS[C@@H]2/C(=C\c3ccc4c(c3)sc3nccn34)C(=O)N12 [Example 16, (5R),(6Z)-6-(imidazo[2,1-b]bebzothiazol-7-ylmethylene)-7-oxo-4-thia-1-azabicyclo[3.2.0]hept-2-ene-2-carboxylic acid] |  | 9.5 | 4.5 | 130 | 70 | 2 | 0.05 µg/mL | 32 | 2 | 1 | 64 | 4 | 32 | >64
4 | O=C([O-])C1=CS[C@@H]2/C(=C\c3cc4oc5c(n4n3)CCCC5)C(=O)N12.[Na+] [Example 32, (5R,6Z)-7-oxo-6-(5,6,7,8-tetrahydropyrazolo[5,1-b][1,3]benzoxazol-2-ylmethylene)-4-thia-1-1-azabicyclo[3.2.0]hept-2-ene-2-carboxylic acid, sodium salt] |  | 5.6 | 2.6 | 180 | 110 | 2 | .05 µg/mL | 32 | 4 | 2 | 16 | 2 | 64 | 64
